The Solubility is the dissolved amount per volume that the medium holds. High values mean much dissolved substance, low ones little dissolved substance.

The results in this text go back to patent publication US20240116985A1, “STAPLED PEPTIDES AND METHODS THEREOF” (priority 2020, published 2024).

In brackets after ≈: the same amount, converted by molar mass. Like-named read-outs stand apart in the source and are kept apart here. Bounds are passed on as bounds.

Data set [1] addresses T1, beta-catenin/TCF4 engagement (Homo sapiens, UniProt P35222).
T1 construct: expressed in transfected cells; host or cells: HEK293
T1 sequence (P35222 1-781): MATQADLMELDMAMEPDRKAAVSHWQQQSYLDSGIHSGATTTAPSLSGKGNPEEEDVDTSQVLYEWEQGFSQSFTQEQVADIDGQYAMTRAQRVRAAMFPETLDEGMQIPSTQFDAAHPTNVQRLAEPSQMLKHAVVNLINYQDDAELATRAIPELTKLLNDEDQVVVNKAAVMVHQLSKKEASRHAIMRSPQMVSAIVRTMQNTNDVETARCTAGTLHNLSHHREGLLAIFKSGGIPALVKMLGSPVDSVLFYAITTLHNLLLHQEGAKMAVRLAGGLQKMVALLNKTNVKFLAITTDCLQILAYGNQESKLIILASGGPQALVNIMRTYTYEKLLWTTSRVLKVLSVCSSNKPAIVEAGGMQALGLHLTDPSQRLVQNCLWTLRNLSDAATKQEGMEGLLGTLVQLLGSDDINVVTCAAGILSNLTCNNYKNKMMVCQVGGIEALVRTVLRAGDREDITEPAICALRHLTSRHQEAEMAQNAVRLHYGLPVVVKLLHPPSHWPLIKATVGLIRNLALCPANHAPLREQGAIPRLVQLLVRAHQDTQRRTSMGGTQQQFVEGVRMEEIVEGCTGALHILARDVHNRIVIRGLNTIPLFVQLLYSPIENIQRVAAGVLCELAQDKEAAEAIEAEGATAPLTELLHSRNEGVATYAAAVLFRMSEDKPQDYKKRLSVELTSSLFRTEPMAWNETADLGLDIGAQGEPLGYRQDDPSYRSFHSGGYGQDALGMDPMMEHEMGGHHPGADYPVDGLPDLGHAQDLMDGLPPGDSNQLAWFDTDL
As to the kind of experiment: Nano-BRET target engagement assay (B-cat-Halo & TCF4-Luc in HEK293 cells). The following applies: absolute IC50; read-out: NanoBRET Abs IC50. Type of data set: cell-based.

A short description of data set [2]: Solubility in PBS. The class given is physicochemical. Put shortly: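 HPLC quantitation of peptide remaining in the PBS supernatant after ultracentrifugation, referenced to a 50 μM solution in DMSO.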
In data set [3] the target is T2, full-length beta-Catenin (Uniprot ID P35222) (Homo sapiens, UniProt P35222).
T2 construct: 10 nM full-length beta-Catenin (Uniprot ID P35222)
T2 sequence (P35222 1-781): T1 sequence (P35222 1-781)
Kind of data set: Fluorescence polarization IC50 (beta-catenin / 5FAM-TCF4 10-53 competition). Type of data set: binding. The following applies: fluorescence polarization. Background: Fluorescence polarisation rises when a labelled molecule tumbles more slowly, as on binding a larger partner.

`CC(=O)N1CCC[C@]12CC=CCCCC1(CCCC=CCCCOC(=O)N3CC[C@@](C(=O)N[C@@H](Cc4ccsc4)C(=O)N[C@@H](Cc4csc5ccccc45)C(=O)N[C@@H](CO)C(N)=O)(C3)NC(=O)[C@H]([C@@H](C)O)NC(=O)[C@H](Cc3ccccc3)NC(=O)[C@H](C)NC(=O)[C@H](C)NC(=O)[C@H]([C@@H](C)O)NC(=O)[C@H](CC(=O)O)NC1=O)NC(=O)[C@H](CC(C)(C)C)NC(=O)[C@H](CC(=O)O)NC2=O` (stereo partly drawn) [I-1170, Ac-PL3-Asp-Npg-B5-Asp-Thr-Ala-Ala-Phe-Thr-PyrS2-3Thi-BztA-Ser-NH2]: the values for the IC50 in data set [1] and in data set [3] (read-out: beta-Catenin FP IC50) were 13.5 µM and 15 nM, respectively. Further, the “Solubility” value in data set [2] is 10 µM (≈ 18.5 µg/mL).

On to `CC(=O)N1CCC[C@]12CC=CCCCC1(CCCC=CCCCOC(=O)N3CC[C@@](C(=O)N[C@@H](Cc4ccsc4)C(=O)N[C@@H](Cc4csc5ccccc45)C(=O)N[C@@H](CCC(N)=O)C(N)=O)(C3)NC(=O)[C@H]([C@@H](C)O)NC(=O)[C@H](Cc3ccccc3)NC(=O)[C@H](C)NC(=O)[C@H](C)NC(=O)[C@H]([C@@H](C)O)NC(=O)[C@H](CC(=O)O)NC1=O)NC(=O)[C@H](CC1CCCCC1)NC(=O)[C@H](CC(=O)O)NC2=O` (stereo partly drawn) [I-1173, Ac-PL3-Asp-Cha-B5-Asp-Thr-Ala-Ala-Phe-Thr-PyrS2-3Thi-BztA-Gln-NH2], for which the IC50 turned out to be 17.2 µM in data set [1] and 12 nM in data set [3] (read-out: beta-Catenin FP IC50). The “Solubility” value in data set [2] turned out to be 10 µM (≈ 19.2 µg/mL).

As to `CC(=O)N1CCC[C@]12CC=CCCCC1(CCCC=CCCCOC(=O)N3CC[C@@](C(=O)N[C@@H](Cc4ccccc4Cl)C(=O)N[C@@H](Cc4csc5ccccc45)C(=O)N[C@@H](CCC(N)=O)C(N)=O)(C3)NC(=O)[C@H]([C@@H](C)O)NC(=O)[C@H](Cc3ccccc3)NC(=O)[C@H](C)NC(=O)[C@H](C)NC(=O)[C@H]([C@@H](C)O)NC(=O)[C@H](CC(=O)O)NC1=O)NC(=O)[C@H](CC1CCCCC1)NC(=O)[C@H](CC(=O)O)NC2=O` (stereo partly drawn) [I-1175, Ac-PL3-Asp-Cha-B5-Asp-Thr-Ala-Ala-Phe-Thr-PyrS2-2C1F-BztA-Gln-NH2], the results for the IC50 in data set [1] and in data set [3] (read-out: beta-Catenin FP IC50) were 27.3 µM and 24 nM, respectively. Moreover, the “Solubility” value in data set [2] was 10 µM (≈ 19.5 µg/mL).

In the case of `CC(=O)N1CCC[C@]12CC=CCCCC1(CCCC=CCCCOC(=O)N3CC[C@@](C(=O)N[C@@H](Cc4ccsc4)C(=O)N[C@@H](Cc4csc5ccccc45)C(=O)N[C@@H](CCC(N)=O)C(N)=O)(C3)NC(=O)[C@H](CC(C)C)NC(=O)[C@H](Cc3ccccc3)NC(=O)[C@H](C)NC(=O)C(C)(C)NC(=O)[C@H](CC(=O)O)NC(=O)[C@H](CC(=O)O)NC1=O)NC(=O)[C@H](CC(C)(C)C)NC(=O)[C@H](CC(=O)O)NC2=O` (stereo partly drawn) [I-1177, Ac-PL3-Asp-Npg-B5-Asp-Asp-Aib-Ala-Phe-Leu-PyrS2-3Thi-BztA-Gln-NH2], the IC50 was 4.3 µM in data set [1] and 25 nM in data set [3] (read-out: beta-Catenin FP IC50). For the same molecule, the concentration in solution in data set [2] (Solubility (uM)) (Solubility) was 35 µM (≈ 67.6 µg/mL).

For the molecule `CC(=O)N1CCC[C@H]1C(=O)N[C@@H](CC(=O)O)C(=O)N[C@@H](CC(C)(C)C)C(=O)N[C@]1(C)CCCC=CCCCOC(=O)N2CC[C@@](C(=O)N[C@@H](Cc3ccsc3)C(=O)N[C@@H](Cc3csc4ccccc34)C(=O)N[C@@H](CCC(N)=O)C(N)=O)(C2)NC(=O)[C@H](CC(C)C)NC(=O)[C@H](Cc2ccccc2)NC(=O)[C@H](C)NC(=O)[C@H](C)NC(=O)[C@H](CC(=O)O)NC(=O)[C@H](CC(=O)O)NC1=O` [I-1181, Ac-Pro-Asp-Npg-R5-Asp-Asp-Ala-Ala-Phe-Leu-PyrS2-3Thi-BztA-Gln-NH2], the IC50 in data set [1] was above 20 µM; in data set [3] (beta-catenin, read-out: FP EC50), 226 nM; in data set [3] (read-out: beta-Catenin FP IC50), 297 nM. The “Solubility” value in data set [2] was determined as 50 µM (≈ 92.6 µg/mL).
